Laboratory results published in patent US20040204577A1, “Novel peptide-forming enzyme gene” (Ajinomoto Co., Inc., priority 2003, published 2004).
Where a SMILES comes first, the peptide text is derived from it.

Experiments:
[1] = system: enzyme derived from Sphingobacterium sp. strain FERM BP-8124 (SP-Sepharose HP fraction enzyme); experiment: Enzyme substrate specificity (11), (12): peptide production; format: biochemical; set-up: key to Produced peptide (Table 15-1) / Produced peptide (Table 15-3) / Produced peptide (Table 15-4): +: those peptides for which production was confirmed but which were unable to be quantified due to the absence of a standard; a trace amount; settings: carboxy component 100 mM, 0.33 units enzyme, pH 9.0, 25° C., 1.5 hours; for Produced peptide (Table 15-1) / Produced peptide (Table 15-3) / Produced peptide (Table 16, oligopeptide) / Produced peptide (Table 15-4): amine component 150 mM; for Produced peptide (Table 15-2): L-Gln 150 mM; for Produced peptide (Table 15-4): amides and methylamine
Text: Substrate specificity was examined for enzyme derived from Sphingobacterium sp. strain FERM BP-8124 (Depositary institution: the independent administrative corporation, National Institute of Advanced Industrial Science and Technology, International Patent Organism Depositary, Address of depositary institution: Chuo Dai-6, 1-1 Higashi 1-Chome, Tsukuba-shi, Ibaraki-ken, Japan, International deposit date: […] The amounts of various peptides formed in this reaction are shown in Table 15. The “+” mark indicates those peptides for which production was confirmed but which were unable to be quantified due to the absence of a standard, while “tr” indicates a trace amount. Furthermore, Tween-80 was added to the reaction system to a final concentration of 0.1% in the case of using L-Tyr-OMe. In addition, hydrochloride salts were used for all carboxy components. Substrate specificity with respect to oligopeptide production was examined for enzyme derived from Sphingobacterium sp. strain FERM BP-8124 (Depositary institution: the independent administrative corporation, National Institute of Advanced Industrial Science and Technology, International Patent Organism Depositary, Address of depositary institution: Chuo Dai-6, 1-1 Higashi 1-Chome, Tsukuba-shi, Ibaraki-ken, Japan, International deposit date: […] The amounts of each oligopeptide formed in this reaction are shown in Table 16. Furthermore, hydrochloride salts were used for all the carboxy components.

[2] = system: peptide-forming enzyme (Mono S fraction enzyme); experiment: Enzyme substrate specificity (1)-(10), (13), (14): peptide production; format: biochemical, Empedobacter brevis; set-up: key to Formed peptide: +: those peptides for which production was confirmed but which were unable to be quantified due to the absence of a standard; a trace amount; settings: pH 9.0, 25° C., 3 hours; for Produced peptide: L-amino acid ester 100 mM, peptide (amine component) 150 mM
Protocol: Ester specificity was examined in the case of using L-amino acid ester for the carboxy component. 2 μl of the same enzyme fraction as used in Example 5 was added to 100 μl of 100 mM borate buffer (pH 9.0) containing the carboxy components indicated in Table 4 at 100 mM, 200 mM L-glutamine and 10 mM EDTA, and allowed to react at 25° C. for 2 hours. HCl represents hydrochloride in Table 4.
Peptide production was examined in the case of using L-alanine methyl ester for the carboxy component and using various L-amino acids for the amine component.
Peptide production was examined in the case of using various types of L-amino acid methyl esters for the carboxy component and using L-glutamine for the amine component. 2 μl of the same enzyme fraction as used in Example 5 was added to 100 μl of 100 mM borate buffer (pH 9.0) containing the L-amino acid methyl ester hydrochloride salts (AA-OMe.HCl) shown in Table 6 at 100 mM, 150 mM L-glutamine and 10 mM EDTA, and allowed to react at 25° C. for 3 hours. […] Furthermore, Tween-80 was added to the reaction system to a final concentration of 0.1% in the case of using L-Trp-OMe and L-Tyr-OMe.
Peptide production was examined in the case of using various L-amino acid methyl esters for the carboxy component and various L-amino acids for the amine component. 2 μl of the same enzyme fraction as used in Example 5 was added to 100 μl of 100 mM borate buffer (pH 9.0) containing the L-amino acid methyl ester hydrochloride salts (AA-OMe.HCl) shown in Table 7 at 100 mM, the L-amino acids shown in Table 7 at 150 mM and 10 mM EDTA, and allowed to react at 25° C. for 3 hours. The “tr” indicates a trace amount. Furthermore, Tween-80 was added to the reaction system to a final concentration of 0.1% in the case of using L-Trp-OMe.
Peptide production was examined in the case of using the L or D forms of various amino acid methyl esters for the carboxy component, and the L or D forms of various amino acids for the amine component. 2 μl of the same enzyme fraction as used in Example 5 was added to 100 μl of 100 mM borate buffer (pH 9.0) containing the various amino acid methyl ester hydrochloride salts (AA-OMe HCl) shown in Table 8 at 100 mM, the various amino acids shown in Table 8 at 150 mM and 10 mM EDTA, and allowed to react at 25° C. for 3 hours. The “tr” indicates a trace amount.
Peptide production was examined using various L-amino acid amides for the carboxy component, and various L-amino acids for the amine component. 2 μl of the same enzyme fraction as that used in Example 5 was added to 100 μl of 100 mM borate buffer (pH 9.0) containing the L-amino acid amide hydrochloride salt (M-NH2.HCl) shown in Table 9 at 100 mM, the L-amino acids shown in Table 9 at 150 mM and 10 mM EDTA, and allowed to react at 25° C. for 3 hours.
Peptide production was examined in the case of using various L-alanine methyl esters for the carboxy component and C-protected L-amino acids for the amine component. 2 μl of the same enzyme fraction as used in Example 5 was added to 100 μl of 100 mM borate buffer (pH 9.0) containing the L-alanine methyl ester hydrochloride hydrochloride salt (Ala-OMe.HCl) shown in Table 10 at 100 mM, the L-amino acid amide hydrochloride salts shown in Table 10 at 150 mM and 10 mM EDTA, and allowed to react at 25° C. for 3 hours.
Peptide production was examined in the case of using various amino acid methyl esters for the carboxy component and methylamine for the amine component. 2 μl of the same enzyme fraction as used in Example 5 was added to 100 μl of 100 mM borate buffer (pH 9.0) containing the amino acid methyl ester hydrochloride salt (M-OMe.HCl) shown in Table 11 at 100 mM, the methylamine shown in Table 11 at 150 mM and 10 mM EDTA, and allowed to react at 25° C. for 3 hours.
Peptide production was examined in the case of using […] for the carboxy component or β-amino acid for the amine component.

[3] = 100 mM L-alanine methyl ester hydrochloride, L-amino acid 150 mM
[4] = L-amino acid methyl ester hydrochloride 100 mM, 150 mM L-glutamine
[5] = L-amino acid methyl ester hydrochloride 100 mM, L-amino acid 150 mM
[6] = L-alanine methyl ester hydrochloride 100 mM, L-amino acid amide hydrochloride 150 mM

## C[C@H](N)C(=O)N[C@@H](Cc1ccc(O)cc1)C(=O)O [L-Ala-L-Tyr] (H-Ala-Tyr-OH)
[1]
  Produced peptide (Table 15-1): 11.1 mM
[2]; [3]
  Formed peptide: 17.6 mM

## NC(=O)CC[C@H](NC(=O)[C@@H](N)CCCN=C(N)N)C(=O)O [L-Arg-L-Gln] (H-Arg-Gln-OH)
[1]
  Produced peptide (Table 15-2): 17.2 mM
[2]; [4]
  Formed peptide: 7.1 mM

## C[C@@H](O)[C@H](N)C(=O)NCC(=O)O [L-Thr-Gly] (H-Thr-Gly-OH)
[1]
  Produced peptide (Table 15-3): 0.4 mM
[2]; [5]
  Formed peptide: 9.4 mM

## Gly-L-Ala-L-Tyr
[1]
  Produced peptide (Table 16, oligopeptide): 0.6 mM
[2]
  Produced peptide: 1.7 mM

## C[C@H](N)C(=O)N[C@@H](CCCCN)C(=O)O [L-Ala-L-Lys] (H-Ala-Lys-OH)
[1]
  Produced peptide (Table 15-1): 71.2 mM
[2]; [3]
  Formed peptide: 71.8 mM

## CC[C@H](C)[C@H](N)C(=O)N[C@@H](Cc1ccccc1)C(=O)O [L-Ile-L-Phe] (H-Ile-Phe-OH)
[1]
  Produced peptide (Table 15-3): 1.5 mM
[2]; [5]
  Formed peptide: 5.2 mM

## C[C@H](N)C(=O)NCC(N)=O [L-Ala-Gly-NH2] (H-Ala-Gly-NH2)
[1]
  Produced peptide (Table 15-4): 15.1 mM
[2]; [6]
  Formed peptide: 7.4 mM

## CC(C)[C@H](N)C(=O)N[C@@H](Cc1ccccc1)C(=O)O [L-Val-L-Phe] (H-Val-Phe-OH)
[1]
  Produced peptide (Table 15-3): 1.0 mM
[2]; [5]
  Formed peptide: 6.1 mM

## NC(=O)CC[C@H](NC(=O)[C@@H]1CCCN1)C(=O)O [L-Pro-L-Gln] (H-Pro-Gln-OH)
[1]
  Produced peptide (Table 15-2): 1.8 mM
[2]; [4]
  Formed peptide: 2.2 mM

## NCC(=O)N[C@@H](CCCN=C(N)N)C(=O)O [Gly-L-Arg] (H-Gly-Arg-OH)
[1]
  Produced peptide (Table 15-3): 17.9 mM
[2]; [5]
  Formed peptide: 25.5 mM

## CC[C@H](C)[C@H](NC(=O)[C@H](C)N)C(=O)O [L-Ala-L-Ile] (H-Ala-Ile-OH)
[1]
  Produced peptide (Table 15-1): 24.7 mM
[2]; [3]
  Formed peptide: 33.9 mM

## L-Ala-Gly-Gly
[1]
  Produced peptide (Table 16, oligopeptide): 33.7 mM
[2]
  Produced peptide: 41.7 mM

## C[C@H](N)C(=O)N[C@@H](C)C(N)=O [L-Ala-L-Ala-NH2] (H-Ala-Ala-NH2)
[1]
  Produced peptide (Table 15-4): 9.2 mM
[2]; [6]
  Formed peptide: 8.3 mM

## CC(C)[C@H](NC(=O)[C@H](C)N)C(=O)O [L-Ala-L-Val] (H-Ala-Val-OH)
[1]
  Produced peptide (Table 15-1): 10.9 mM
[2]; [3]
  Formed peptide: 20.8 mM

## C[C@H](N)C(=O)N[C@@H](Cc1ccccc1)C(N)=O [L-Ala-L-Phe-NH2]
[1]
  Produced peptide (Table 15-4): 27.1 mM
[2]; [6]
  Formed peptide: 12.2 mM

## CC(C)[C@H](N)C(=O)N[C@@H](CCC(N)=O)C(=O)O [L-Val-L-Gln] (H-Val-Gln-OH)
[1]
  Produced peptide (Table 15-2): 8.2 mM
[2]; [4]
  Formed peptide: 15.4 mM

## CSCC[C@H](NC(=O)[C@@H](N)[C@@H](C)O)C(=O)O [L-Thr-L-Met] (H-Thr-Met-OH)
[1]
  Produced peptide (Table 15-3): 28.9 mM
[2]; [5]
  Formed peptide: 38.6 mM

## CSCC[C@H](N)C(=O)N[C@@H](CCC(N)=O)C(=O)O [L-Met-L-Gln] (H-Met-Gln-OH)
[1]
  Produced peptide (Table 15-2): 32.6 mM
[2]; [4]
  Formed peptide: 12.0 mM

## L-Ala-L-His-L-Ala
[1]
  Produced peptide (Table 16, oligopeptide): 58.0 mM
[2]
  Produced peptide: 55.9 mM

## CNC(=O)C(C)N [L-Ala-methylamine]
[1]
  Produced peptide (Table 15-4): 0.6 mM
[2]; amino acid methyl ester hydrochloride 100 mM, methylamine 150 mM
  Formed peptide: 0.3 mM

## L-Ala-L-Leu-L-Ala
[1]
  Produced peptide (Table 16, oligopeptide): 40.7 mM
[2]
  Produced peptide: 48.3 mM

## CC(C)[C@H](NC(=O)[C@@H](N)[C@@H](C)O)C(=O)O [L-Thr-L-Val] (H-Thr-Val-OH)
[1]
  Produced peptide (Table 15-3): 1.3 mM
[2]; [5]
  Formed peptide: 0.7 mM

## L-Ala-L-Ala-L-Ala-L-Ala-L-Ala
[1]
  Produced peptide (Table 16, oligopeptide): 22.8 mM
[2]
  Produced peptide: 34.8 mM

## CC(C)[C@H](N)C(=O)N[C@@H](CO)C(=O)O [L-Val-L-Ser] (H-Val-Ser-OH)
[1]
  Produced peptide (Table 15-3): 31.9 mM
[2]; [5]
  Formed peptide: 30.8 mM

## C[C@H](N)C(=O)N[C@H](C(=O)O)[C@@H](C)O [L-Ala-L-Thr] (H-Ala-Thr-OH)
[1]
  Produced peptide (Table 15-1): 47.3 mM
[2]; [3]
  Formed peptide: 53.9 mM

## L-Ala-Gly-L-Ala
[1]
  Produced peptide (Table 16, oligopeptide): 35.1 mM
[2]
  Produced peptide: 25.9 mM

## L-Ala-L-Phe-Gly
[1]
  Produced peptide (Table 16, oligopeptide): 34.0 mM
[2]
  Produced peptide: 43.7 mM

## N[C@@H](CO)C(=O)N[C@@H](Cc1ccccc1)C(=O)O [L-Ser-L-Phe]
[1]
  Produced peptide (Table 15-3): 4.3 mM
[2]; [5]
  Formed peptide: 20.3 mM

## C[C@H](N)C(=O)N[C@@H](CS)C(=O)O [L-Ala-L-CySH] (H-Ala-Cys-OH)
[1]
  Produced peptide (Table 15-1): +
[2]; [3]
  Formed peptide: +

## CSCC[C@H](NC(=O)[C@@H](N)CCCN=C(N)N)C(=O)O [L-Arg-L-Met] (H-Arg-Met-OH)
[1]
  Produced peptide (Table 15-3): tr
[2]; [5]
  Formed peptide: 0.7 mM

## NC(=O)CC[C@H](NC(=O)[C@@H](N)CC(=O)O)C(=O)O [α-L-Asp-L-Gln] (H-Asp-Gln-OH)
[1]
  Produced peptide (Table 15-2): 0.05 mM
[2]; [4]
  Formed peptide: tr

## C[C@@H](O)[C@H](N)C(=O)N[C@@H](CCC(N)=O)C(=O)O [L-Thr-L-Gln] (H-Thr-Gln-OH)
[1]
  Produced peptide (Table 15-2): 36.1 mM
[2]; L-amino acid amide hydrochloride as carboxy component 100 mM, L-amino acid 150 mM
  Formed peptide: 0.3 mM
[2]; [4]
  Formed peptide: 81.9 mM

## C[C@H](N)C(=O)N[C@@H](Cc1c[nH]c2ccccc12)C(=O)O [L-Ala-L-Trp] (H-Ala-Trp-OH)
[1]
  Produced peptide (Table 15-1): 46.0 mM
[2]; [3]
  Formed peptide: 53.9 mM

## L-Ala-L-Phe-L-Ala
[1]
  Produced peptide (Table 16, oligopeptide): 24.8 mM
[2]
  Produced peptide: 49.7 mM
